Laboratory results from patent US10172954B2, “Use of a reverse-micellar system for delivering chelators of radionuclides and metals” (priority 2014, dated 2019).

Key:
[1] = Pu decorporation in rats contaminated i.v. with plutonium citrate, chronic intrarectal treatment, liver and femur alpha activity; conditions: cumulative CaNa3DTPA doses 44.3 to 307.6 μmol/kg, rectal, treatment from D+4
[2] = oral delivery; DTPA highly polar at neutral pH; cited from earlier work

Row | Structure (SMILES) | efficacy of decorporation in liver or bone Pu deposits as a function of cumulative dose [1] | absorbed when delivered orally [2]
1 | O=C([O-])CN(CCN(CC(=O)[O-])CC(=O)[O-])CCN(CC(=O)[O-])CC(=O)[O-].[Ca+2].[Na+].[Na+].[Na+] [CaNa3DTPA, pentetate calcium trisodium] | proportional to the administered dose cumulative | 
2 | O=C(O)CN(CCN(CC(=O)O)CC(=O)O)CCN(CC(=O)O)CC(=O)O [DTPA, diethylene triaminopentaacetic acid] |  | < 10%
